Data set [1] addresses T1, human NPFFR1 (hNPFFR1) receptor (Homo sapiens, UniProt Q9GZQ6).
T1 construct: expressed in transfected cells; host or cells: HEK-293 T cells, transient co-transfection
Put plainly: Human NPFFR1 evaluation using BRET biosensors in HEK-293 T cells. The note with it: hNPFFR1 in HEK-293 T cells, stimulated by EC80 RFRP-3, read-out: IC50 of antagonist activity. The data set is classed as cell-based. In outline: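 HEK-293 T cells transiently co-expressing hNPFFR1, GαoB and a Gi-effector BRET biosensor pair; agonist read after 10 min compound alone, then antagonism after EC80 RFRP-3 for 10 min. IC50 from 20-point curves over 6 logs, duplicates in two independent experiments.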

The target of another data set is T2, hNPFF1R (Homo sapiens, UniProt Q9GZQ6).
T2 construct: expressed in transfected cells
T2 sequence (Q9GZQ6 whole entry): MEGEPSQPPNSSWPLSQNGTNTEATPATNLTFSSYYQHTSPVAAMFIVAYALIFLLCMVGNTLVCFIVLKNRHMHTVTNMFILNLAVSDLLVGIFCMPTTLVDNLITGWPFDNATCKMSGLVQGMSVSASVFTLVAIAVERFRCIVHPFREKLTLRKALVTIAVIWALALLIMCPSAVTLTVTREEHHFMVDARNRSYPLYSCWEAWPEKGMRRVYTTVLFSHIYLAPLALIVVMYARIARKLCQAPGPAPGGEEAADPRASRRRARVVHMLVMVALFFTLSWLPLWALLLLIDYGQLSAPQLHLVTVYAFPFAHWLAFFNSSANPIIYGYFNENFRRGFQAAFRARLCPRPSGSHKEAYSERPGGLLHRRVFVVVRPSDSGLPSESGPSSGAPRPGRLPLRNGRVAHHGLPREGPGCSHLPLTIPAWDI
Description: Glo Sensor cAMP assay in HEK-293 expressing hNPFF1R. The format is cell-based. The procedure: The functional characterization of the selected compounds was performed by Glo Sensor cAMP kinetic assay, a validated approach for measuring Gαi/s activation by GPCRs (DiRaddo et al., 2014; Gilissen et al., 2015). HEK-Glo cells expressing either NPFF1 or NPFF2 receptors were suspended (10^6 cells per mF) in physiological Hepes buffer (10 mM HEPES, 0.4 mM NaH2PO4, 137.5 mM NaCl, 1.25 mM MgCl2, 1.25 mM CaCl2, 6 mM KCl, 10 mM glucose and 1 mg/mF bovine serum albumin, pH 7.4) supplemented with 1 mM D-Fuciferine. After equilibration for 2 h at 25° C., luminescence levels were recorded in real time in 96-well plates using a Flexstation^R 3 (Molecular Devices, Sunnyvale Calif., USA). Non-specific effect of the different compounds was evaluated in HEK-Glo cells without any recombinant human RF-amide receptors. To test the agonist activity on NPFF1R and NPFF2R, compounds were injected 15 minutes before addition of forskolin (0.5 μM) and readings were pursued for 90 minutes. To evaluate their antagonist properties, compounds were pre-incubated with cells for 15 minutes before prototypical agonists for NPFF1R (RFRP-3) and NPFF2R (NPFF) receptors. According to their preferential coupling to Gi/o proteins, the stimulation of NPFF1R and NPFF2R by agonists was monitored as a dose-dependent reduction in steady-state luminescence levels, reflecting the inhibition of forskolin-induced cAMP accumulation. Experiments were performed at 25° C. in the presence of 0.5 mM IBMX to prevent the degradation of cAMP by phosphodiesterases.

Data set [2] in a line: Solubility in dosing vehicle. The format is physicochemical. The note with it: Tween 80 (0.5%) or Kolliphor EL (10%).
For a further data set, the target named is T3, hNPFFR1 (Homo sapiens, UniProt Q9GZQ6).
T3 construct: expressed in transfected cells; membranes
T3 sequence (Q9GZQ6 whole entry): as above
Description: Radioligand binding competition, membranes from CHO cells expressing hNPFFR1. The following applies: 0.015 nM [D-Tyr1[125I], N-MePhe3]-NPFF, 1 hr at 25° C., read-out: NPFF1-R Ki. In short, it runs like this: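 CHO membranes (5–10 μg protein) stably expressing hNPFFR1 or hNPFFR2 incubated 1 h at 25 °C with 0.015 nM [D-Tyr1[125I], N-MePhe3]-NPFF in HEPES pH 7.4 with Ca2+, Mg2+, 0.1% BSA. Non-specific binding defined with 10 μM RFRP-3; bound radioactivity counted after GF/B filtration.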

T1 sequence (Q9GZQ6 whole entry): as above

With `Nc1ccc(-c2cccc(Cl)c2Cl)c(N)n1` [Compound 1j, 3-(2,3-dichlorophenyl)pyridine-2,6-diamine], the concentration for half-maximal inhibition (IC50) in data set [1] was in the range of 100 to 500 nM. Besides, the “antagonist activity: effect on dose response curve of NPVF (RFRP-3), forskolin-stimulated cAMP” value on hNPFF1R (HEK-293 cells expressing hNPFF1R, FIG. 7) is “efficiently shifted to the right the dose response curve of NPVF”. Besides, the “effect of compound tested alone (agonist activity)” value on hNPFF1R (cells expressing hNPFF1R, forskolin 0.5 μM) is given as “had no effect”. In addition, the “solubility in vehicle (Kolliphor EL vs Tween 80)” value in data set [2] is listed as “better solubility in Kolliphor EL”. For the same compound, the Ki on hNPFFR1 stood at 20 ± 2 nM.

These data come from patent US20210221784A1, “COMPOUNDS AND COMPOSITIONS FOR THE TREATMENT OF PAIN” (Université de Strasbourg, priority 2018, published 2021).
